Measured values from patent publication US20240228488A1 (TAKEDA PHARMACEUTICAL COMPANY LIMITED, priority 2021, published 2024).

Experiments:
plasma kallikrein = biological target: T1, plasma kallikrein (Homo sapiens, UniProt P03952); experiment: Neat human plasma assay, FXIIa contact pathway-activated, PFR-AMC substrate; assay type: biochemical; conditions: citrated human plasma 78% final, 10 nM human FXIIa, 100 μM PFR-AMC; read-out: Human Plasma Assay: IC90
T1 construct: from tissue
Description: To analyze inhibition of plasma kallikrein in an ex vivo setting, the potency of compounds was measure in contact pathway-activated plasma assays. In a fluorogenic peptide substrate assay, test compounds dissolved in DMSO were added to sodium citrate collected human or rat plasma in a 96-well microplate. Alternatively, citrated plasma was collected from rats administered the compounds orally or by IV. 10 nM of human FXIIa (Enzyme Research Laboratories) diluted in pKal buffer (20 mM Tris-HCl, pH 7.5, 150 mM NaCl, 1 mM EDTA, 0.1% PEG-8000, and 0.1% Triton X-100) was added to the plasma, followed by the 100 μM of the profluorescent, synthetic plasma kallikrein substrate PFR-AMC (also diluted in pKal buffer). Final plasma concentration in the reaction was 78%. Fluorescence was immediately monitored by excitation/emission wavelengths of 360 nm/480 nm respectively over a period of 5 minutes in a microplate reader. The resulting linear increase in fluorescence emission (reflecting pKal proteolysis of PFR-AMC substrate) was fit to extract a proteolytic rate (fluorescent units over time), and this rate was subsequently plotted against compound inhibitor concentration. Resulting plots were fit to a standard 4-parameter IC50/IC90 equation to determine min/max values, IC50/90, and slope. All experimental steps were performed at room temperature. Table 50 provides results of the assay.

[1] = biological target: human activated kallikrein enzyme (Homo sapiens, UniProt P03952); experiment: Plasma kallikrein inhibition, fluorogenic PFR-AMC substrate, 500 pM activated kallikrein format; assay type: biochemical; conditions: 500 pM activated kallikrein, 300 uM PFR-AMC, 30 min preincubation, 10 min reaction; read-out: Primary Dose Response Assay: Average EC50
human activated kallikrein enzyme, sequence (P03952 391-638 limits assumed): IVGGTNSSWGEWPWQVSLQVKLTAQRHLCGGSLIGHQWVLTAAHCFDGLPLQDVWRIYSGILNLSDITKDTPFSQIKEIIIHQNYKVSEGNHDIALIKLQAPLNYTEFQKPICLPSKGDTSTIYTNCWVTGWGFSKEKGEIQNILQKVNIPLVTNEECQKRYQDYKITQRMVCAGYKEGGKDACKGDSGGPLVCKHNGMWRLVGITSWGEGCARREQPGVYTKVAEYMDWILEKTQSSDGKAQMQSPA
human activated kallikrein enzyme, sequence (P03952 20-390 partner limits assumed): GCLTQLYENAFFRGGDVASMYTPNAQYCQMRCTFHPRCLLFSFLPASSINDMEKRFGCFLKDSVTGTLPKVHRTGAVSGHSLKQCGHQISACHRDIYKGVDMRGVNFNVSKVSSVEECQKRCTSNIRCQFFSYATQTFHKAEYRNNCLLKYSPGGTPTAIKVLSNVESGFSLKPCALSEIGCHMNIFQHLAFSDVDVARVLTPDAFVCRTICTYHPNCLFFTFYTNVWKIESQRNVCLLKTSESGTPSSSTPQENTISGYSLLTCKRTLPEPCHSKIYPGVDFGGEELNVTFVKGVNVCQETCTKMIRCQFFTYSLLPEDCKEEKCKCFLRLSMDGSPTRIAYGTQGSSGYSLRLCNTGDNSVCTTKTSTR
Outline: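 Fluorescence (ex 380/em 460 nm) is read after 10 min of 300 uM PFR-AMC turnover by 500 pM enzyme at RT. Compounds sit with enzyme for 30 min beforehand. Buffer is Tris (pH 7.5) with EDTA, NaCl, PEG-400 and Triton X-100; EC50 values are banded.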

T1 sequence (P03952 391-638 limits assumed): as the sequence (P03952 391-638 limits assumed) above
T1 sequence (P03952 20-390 partner limits assumed): as the sequence (P03952 20-390 partner limits assumed) above

Cc1cccc([C@H]2C[C@@H]2C(=O)Nc2cc(NCc3cn4cc(C5CC5)cc(N5CC(=O)N(C)C5=O)c4n3)ncn2)n1 (racemic) [Example 500, rac-(1S*,2S*)-N-(6-(((6-cyclopropyl-8-(3-methyl-2,4-dioxoimidazolidin-1-yl)imidazo[1,2-a]pyridin-2-yl)methyl)amino)pyrimidin-4-yl)-2-(6-methylpyridin-2-yl)cyclopropane-1-carboxamide]
IC90 (plasma kallikrein): 400 to 1500 nM | EC50 [1]: < 1 nM

CC(C)(O)c1cc(C2CC2)cn2cc(CNc3ccnc(NC(=O)[C@H]4C[C@@H]4c4cccc(Cl)c4)c3)nc12 [Example 122, (1S,2S)-2-(3-chlorophenyl)-N-(4-(((6-cyclopropyl-8-(2-hydroxypropan-2-yl)imidazo[1,2-a]pyridin-2-yl)methyl)amino)pyridin-2-yl)cyclopropane-1-carboxamide]
IC90 (plasma kallikrein): 10000 to 48000 nM | EC50 [1]: 1 to 10 nM

Cc1ccnc([C@H]2C[C@@H]2C(=O)Nc2cc(N3C[C@@H](O)C[C@@H]3c3cn4cc(C5CC5)cc(N5CC(=O)NC5=O)c4n3)ncn2)n1 (relative stereo) [Example 474, rac-(1S*,2S*)-N-(6-((2R,4S)-2-(6-cyclopropyl-8-(2,4-dioxoimidazolidin-1-yl)imidazo[1,2-a]pyridin-2-yl)-4-hydroxypyrrolidin-1-yl)pyrimidin-4-yl)-2-(4-methylpyrimidin-2-yl)cyclopropane-1-carboxamide]
IC90 (plasma kallikrein): 400 to 1500 nM | EC50 [1]: < 1 nM

CN1C(=O)CN(c2cc(C3CC3)cn3cc(CNc4cc(NC(=O)[C@H]5C[C@@H]5c5cccc(Cl)c5)ncn4)nc23)C1=O [Example I-169, (1S,2S)-2-(3-chlorophenyl)-N-(6-(((6-cyclopropyl-8-(3-methyl-2,4-dioxoimidazolidin-1-yl)imidazo[1,2-a]pyridin-2-yl)methyl)amino)pyrimidin-4-yl)cyclopropane-1-carboxamide]
IC90 (plasma kallikrein): 400 to 1500 nM | EC50 [1]: < 1 nM

Cc1ccnc([C@H]2C[C@@H]2C(=O)Nc2ncc(F)c(NCc3cn4cc(C5CC5)cc(N5CC(=O)N(CCOCc6ccccc6)C5=O)c4n3)n2)n1 (racemic) [Example 515, rac-(1S*,2S*)-N-(4-(((8-(3-(2-(benzyloxy)ethyl)-2,4-dioxoimidazolidin-1-yl)-6-cyclopropylimidazo[1,2-a]pyridin-2-yl)methyl)amino)-5-fluoropyrimidin-2-yl)-2-(4-methylpyrimidin-2-yl)cyclopropane-1-carboxamide]
IC90 (plasma kallikrein): 400 to 1500 nM | EC50 [1]: < 1 nM

Cc1ccnc([C@H]2C[C@@H]2C(=O)Nc2cc(NCc3cn4cc(C5CC5)cc(N5CC(=O)N(C)C5=O)c4n3)nc(C(F)F)n2)n1 (racemic) [Example 411, rac-(1S*,2S*)-N-(6-(((6-cyclopropyl-8-(3-methyl-2,4-dioxoimidazolidin-1-yl)imidazo[1,2-a]pyridin-2-yl)methyl)amino)-2-(difluoromethyl)pyrimidin-4-yl)-2-(4-methylpyrimidin-2-yl)cyclopropane-1-carboxamide]
IC90 (plasma kallikrein): < 400 nM | EC50 [1]: < 1 nM

O=C(Nc1cc(NCc2cn3cc(C4CC4)cc(N4CCN5CC(O)CC5C4)c3n2)ccn1)[C@H]1C[C@@H]1c1cccc(Cl)c1 (stereo partly drawn) [Example I-228, (1S,2S)-2-(3-chlorophenyl)-N-(4-(((6-cyclopropyl-8-(7-hydroxyhexahydropyrrolo[1,2-a]pyrazin-2(1H)-yl)imidazo[1,2-a]pyridin-2-yl)methyl)amino)pyridin-2-yl)cyclopropane-1-carboxamide]
IC90 (plasma kallikrein): 400 to 1500 nM | EC50 [1]: < 1 nM

Cc1ccnc([C@H]2C[C@@H]2C(=O)Nc2cc(NCc3cn4cc(C5CC5)cc(S(C)(=O)=O)c4n3)ncn2)n1 (racemic) [Example 322, rac-(1S*,2S*)—N-(6-(((6-cyclopropyl-8-(methylsulfonyl)imidazo[1,2-a]pyridin-2-yl)methyl)amino)pyrimidin-4-yl)-2-(4-methylpyrimidin-2-yl)cyclopropane-1-carboxamide]
IC90 (plasma kallikrein): 400 to 1500 nM | EC50 [1]: < 1 nM

CN1CC(c2cc(C3CC3)cn3cc(CNc4ccnc(NC(=O)[C@H]5C[C@@H]5c5cccc(Cl)c5)c4)nc23)C1 [Example 609, (1S,2S)-2-(3-chlorophenyl)-N-(4-(((6-cyclopropyl-8-(1-methylazetidin-3-yl)imidazo[1,2-a]pyridin-2-yl)methyl)amino)pyridin-2-yl)cyclopropane-1-carboxamide]
IC90 (plasma kallikrein): < 400 nM | EC50 [1]: < 1 nM

Cc1ccnc([C@H]2C[C@@H]2C(=O)Nc2cc(NCc3cn4cc(C5CC5)cc(N5CC(=O)N(CC(F)(F)F)C5=O)c4n3)ncn2)n1 (racemic) [Example 388, rac-(1S*,2S*)-N-(6-(((6-cyclopropyl-8-(2,4-dioxo-3-(2,2,2-trifluoroethyl)imidazolidin-1-yl)imidazo[1,2-a]pyridin-2-yl)methyl)amino)pyrimidin-4-yl)-2-(4-methylpyrimidin-2-yl)cyclopropane-1-carboxamide]
IC90 (plasma kallikrein): 400 to 1500 nM | EC50 [1]: < 1 nM

CC(C)(O)c1cc(C2CC2)cn2cc(CNc3ccnc(NC(=O)[C@H]4C[C@@H]4c4cc(Cl)ccc4C#N)c3)nc12 (racemic) [Example 131, rac-(1S*,2S*)-2-(5-chloro-2-cyanophenyl)-N-(4-(((6-cyclopropyl-8-(2-hydroxypropan-2-yl)imidazo[1,2-a]pyridin-2-yl)methyl)amino)pyridin-2-yl)cyclopropane-1-carboxamide]
IC90 (plasma kallikrein): 10000 to 48000 nM | EC50 [1]: < 1 nM

Cc1ccnc([C@H]2C[C@@H]2C(=O)Nc2cc(NC(C)c3cn4cc(C5CC5)cc(N5CCN(C)C5=O)c4n3)nc(C)n2)n1 (stereo partly drawn) [Example 364, (1S,2S)-N-(6-((1-(6-cyclopropyl-8-(3-methyl-2-oxoimidazolidin-1-yl)imidazo[1,2-a]pyridin-2-yl)ethyl)amino)-2-methylpyrimidin-4-yl)-2-(4-methylpyrimidin-2-yl)cyclopropane-1-carboxamide]
IC90 (plasma kallikrein): 400 to 1500 nM | EC50 [1]: < 1 nM

O=C1CN(c2cc(C3CC3)cn3cc([C@H]4C[C@H](O)CN4c4cc(NC(=O)[C@H]5C[C@@H]5c5cc(Cl)ccn5)ncn4)nc23)C(=O)N1 [Example 475, (1S,2S)-2-(4-chloropyridin-2-yl)-N-(6-((2R,4S)-2-(6-cyclopropyl-8-(2,4-dioxoimidazolidin-1-yl)imidazo[1,2-a]pyridin-2-yl)-4-hydroxypyrrolidin-1-yl)pyrimidin-4-yl)cyclopropane-1-carboxamide]
IC90 (plasma kallikrein): < 400 nM | EC50 [1]: < 1 nM

Cc1ccnc([C@H]2C[C@@H]2C(=O)Nc2cc(NCc3cn4cc(C5CC5)cc(N5CC6(COC6)OC5=O)c4n3)ncn2)n1 [Example 372, (1S,2S)-N-(6-(((6-cyclopropyl-8-(6-oxo-2,5-dioxa-7-azaspiro[3.4]octan-7-yl)imidazo[1,2-a]pyridin-2-yl)methyl)amino)pyrimidin-4-yl)-2-(4-methylpyrimidin-2-yl)cyclopropane-1-carboxamide]
IC90 (plasma kallikrein): < 400 nM | EC50 [1]: < 1 nM

O=C(Nc1cc(NCc2cn3cc(C4CC4)ccc3n2)ccn1)[C@H]1C[C@@H]1c1cc(Cl)ccn1 (racemic) [Example I-268, rac-(1S*,2S*)-2-(4-chloropyridin-2-yl)-N-(4-(((6-cyclopropylimidazo[1,2-a]pyridin-2-yl)methyl)amino)pyridin-2-yl)cyclopropane-1-carboxamide]
IC90 (plasma kallikrein): 10000 to 48000 nM | EC50 [1]: < 1 nM

O=C(Nc1cc(NCc2cn3cc(C4CC4)cc(N4CC(F)C4)c3n2)ccn1)[C@H]1C[C@@H]1c1cccc(Cl)c1 [Example 125, (1S,2S)-2-(3-chlorophenyl)-N-(4-(((6-cyclopropyl-8-(3-fluoroazetidin-1-yl)imidazo[1,2-a]pyridin-2-yl)methyl)amino)pyridin-2-yl)cyclopropane-1-carboxamide]
IC90 (plasma kallikrein): 10000 to 48000 nM | EC50 [1]: 1 to 10 nM

CNCCc1cc(C2CC2)cn2cc(CNc3ccnc(NC(=O)[C@H]4C[C@@H]4c4cccc(Cl)c4)c3)nc12 [Example 607, (1S,2S)-2-(3-chlorophenyl)-N-(4-(((6-cyclopropyl-8-(2-(methylamino)ethyl)imidazo[1,2-a]pyridin-2-yl)methyl)amino)pyridin-2-yl)cyclopropane-1-carboxamide]
IC90 (plasma kallikrein): < 400 nM | EC50 [1]: < 1 nM

O=C(Nc1cc(NCc2cn3cc(C4CC4)cc(N4CCOCC4)c3n2)ccn1)[C@H]1C[C@@H]1c1cccc(Cl)c1 [Example 129, (1S,2S)-2-(3-chlorophenyl)-N-(4-(((6-cyclopropyl-8-morpholinoimidazo[1,2-a]pyridin-2-yl)methyl)amino)pyridin-2-yl)cyclopropane-1-carboxamide]
IC90 (plasma kallikrein): 1500 to 10000 nM | EC50 [1]: < 1 nM

Cc1ccnc([C@H]2C[C@@H]2C(=O)Nc2cc(NCc3cn4cc(C5CC5)cc(N5CC(=O)N(C)C5=O)c4n3)nc(C)n2)n1 [Example 365, (1S,2S)-N-(6-(((6-cyclopropyl-8-(3-methyl-2,4-dioxoimidazolidin-1-yl)imidazo[1,2-a]pyridin-2-yl)methyl)amino)-2-methylpyrimidin-4-yl)-2-(4-methylpyrimidin-2-yl)cyclopropane-1-carboxamide]
IC90 (plasma kallikrein): < 400 nM | EC50 [1]: < 1 nM
